Source: PubChem BioAssay (NCI)
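Five compound concentrations were applied to cells in 96-well plates for 48 hours; endpoints were derived by simple linear interpolation of the resulting dose-response curve. GI50: concentration for 50% inhibition of growth. TGI marks complete inhibition of growth.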

How the values were obtained:
Assay in all cases: NCI-60 cell line screen, 48 h
[1] = tested on: 786-0 renal
[2] = tested on: A549 NSCLC
[3] = tested on: ACHN renal
[4] = tested on: CAKI-1 renal
[5] = tested on: CCRF-CEM leukemia
[6] = tested on: COLO 205 colon
[7] = tested on: DU-145 prostate
[8] = tested on: EKVX NSCLC
[9] = tested on: HCC-2998 colon
[10] = tested on: HCT-116 colon
[11] = tested on: HCT-15 colon
[12] = tested on: HOP-92 NSCLC
[13] = tested on: HS 578T breast
[14] = tested on: HT29 colon
[15] = tested on: IGROV1 ovarian
[16] = tested on: KM12 colon
[17] = tested on: LOX IMVI melanoma
[18] = tested on: M14 melanoma
[19] = tested on: MALME-3M melanoma
[20] = tested on: MCF7 breast
[21] = tested on: MDA-MB-231 breast
[22] = tested on: MDA-MB-435
[23] = tested on: MDA-N
[24] = tested on: MOLT-4 leukemia
[25] = tested on: NCI-H23 lung
[26] = tested on: NCI-H460 lung
[27] = tested on: NCI-H522 lung
[28] = tested on: NCI/ADR-RES ovarian
[29] = tested on: OVCAR-4 ovarian
[30] = tested on: OVCAR-5 ovarian
[31] = tested on: OVCAR-8 ovarian
[32] = tested on: PC-3 prostate
[33] = tested on: RPMI-8226 leukemia
[34] = tested on: RXF 393 renal
[35] = tested on: SF-295 CNS
[36] = tested on: SK-MEL-2 melanoma
[37] = tested on: SK-MEL-28 melanoma
[38] = tested on: SK-MEL-5 melanoma
[39] = tested on: SK-OV-3 ovarian
[40] = tested on: SN12C renal
[41] = tested on: SNB-19 CNS
[42] = tested on: SNB-75 CNS
[43] = tested on: SR leukemia
[44] = tested on: SW-620 colon
[45] = tested on: TK-10 renal
[46] = tested on: U251 CNS
[47] = tested on: UACC-257 melanoma
[48] = tested on: UACC-62 melanoma
[49] = tested on: UO-31 renal
[50] = tested on: A498 renal
[51] = tested on: HL-60(TB) leukemia
[52] = tested on: HOP-62 NSCLC
[53] = tested on: K-562 leukemia
[54] = tested on: NCI-H226 lung
[55] = tested on: OVCAR-3 ovarian
[56] = tested on: SF-268 CNS
[57] = tested on: SF-539 CNS
[58] = tested on: T-47D breast
[59] = tested on: BT-549 breast

N#Cc1ccc(NC(=O)C(CC(=O)OCc2ccccc2)NC(=O)OCc2ccccc2)cc1 (centres undefined)
GI50 [1]: > 100 µM
TGI [1]: > 100 µM
GI50 [2]: > 100 µM
TGI [2]: > 100 µM
GI50 [3]: > 100 µM
TGI [3]: > 100 µM
GI50 [4]: > 100 µM
TGI [4]: > 100 µM
GI50 [5]: > 100 µM
TGI [5]: > 100 µM
GI50 [6]: > 100 µM
TGI [6]: > 100 µM
TGI [7]: > 100 µM
GI50 [8]: > 100 µM
TGI [8]: > 100 µM
TGI [9]: > 100 µM
GI50 [10]: > 100 µM
TGI [10]: > 100 µM
GI50 [11]: > 100 µM
TGI [11]: > 100 µM
GI50 [12]: > 100 µM
TGI [12]: > 100 µM
GI50 [13]: > 100 µM
TGI [13]: > 100 µM
GI50 [14]: > 100 µM
TGI [14]: > 100 µM
GI50 [15]: > 100 µM
TGI [15]: > 100 µM
GI50 [16]: > 100 µM
TGI [16]: > 100 µM
GI50 [17]: > 100 µM
TGI [17]: > 100 µM
GI50 [18]: > 100 µM
TGI [18]: > 100 µM
TGI [19]: > 100 µM
GI50 [20]: > 100 µM
TGI [20]: > 100 µM
GI50 [21]: > 100 µM
TGI [21]: > 100 µM
GI50 [22]: > 100 µM
TGI [22]: > 100 µM
GI50 [23]: > 100 µM
TGI [23]: > 100 µM
GI50 [24]: > 100 µM
TGI [24]: > 100 µM
GI50 [25]: > 100 µM
TGI [25]: > 100 µM
GI50 [26]: > 100 µM
TGI [26]: > 100 µM
GI50 [27]: > 100 µM
TGI [27]: > 100 µM
GI50 [28]: > 100 µM
TGI [28]: > 100 µM
GI50 [29]: > 100 µM
TGI [29]: > 100 µM
GI50 [30]: > 100 µM
TGI [30]: > 100 µM
GI50 [31]: > 100 µM
TGI [31]: > 100 µM
GI50 [32]: > 100 µM
TGI [32]: > 100 µM
GI50 [33]: > 100 µM
TGI [33]: > 100 µM
GI50 [34]: > 100 µM
TGI [34]: > 100 µM
GI50 [35]: > 100 µM
TGI [35]: > 100 µM
TGI [36]: > 100 µM
GI50 [37]: > 100 µM
TGI [37]: > 100 µM
TGI [38]: > 100 µM
GI50 [39]: > 100 µM
TGI [39]: > 100 µM
GI50 [40]: > 100 µM
TGI [40]: > 100 µM
GI50 [41]: > 100 µM
TGI [41]: > 100 µM
GI50 [42]: > 100 µM
TGI [42]: > 100 µM
GI50 [43]: > 100 µM
TGI [43]: > 100 µM
GI50 [44]: > 100 µM
TGI [44]: > 100 µM
GI50 [45]: > 100 µM
TGI [45]: > 100 µM
GI50 [46]: > 100 µM
TGI [46]: > 100 µM
GI50 [47]: > 100 µM
TGI [47]: > 100 µM
GI50 [48]: > 100 µM
TGI [48]: > 100 µM
GI50 [49]: > 100 µM
TGI [49]: > 100 µM

COc1c(O)c2c(=O)cc(OC)c3c4c(OC)cc(=O)c5c(O)c(OC)c6c(c(c1C(C(C)O)C6C(C)O)c23)c54 (centres undefined)
TGI [1]: 4.78 µM
TGI [50]: 3.45 µM
TGI [2]: 2.66 µM
TGI [3]: 2.93 µM
TGI [4]: 0.842 µM
TGI [5]: 3.23 µM
TGI [6]: 4.22 µM
TGI [7]: 8.14 µM
TGI [8]: 3.56 µM
TGI [9]: 1.65 µM
TGI [10]: 6.18 µM
TGI [51]: 1.67 µM
TGI [52]: 2.02 µM
TGI [12]: 1.49 µM
TGI [13]: 6.07 µM
TGI [14]: 3.71 µM
TGI [15]: 2.3 µM
TGI [53]: 1.66 µM
TGI [16]: 3.43 µM
TGI [17]: 3.08 µM
TGI [18]: 2.34 µM
TGI [19]: 2.75 µM
TGI [20]: 4.04 µM
TGI [21]: 5.48 µM
TGI [22]: 5.44 µM
TGI [23]: 3.96 µM
TGI [24]: 1.25 µM
TGI [54]: 5.46 µM
TGI [25]: 3.71 µM
TGI [26]: 1.18 µM
TGI [27]: 3.82 µM
TGI [28]: 3.66 µM
TGI [55]: 2.66 µM
TGI [29]: 4.96 µM
TGI [30]: 7.62 µM
TGI [31]: 2.48 µM
TGI [32]: 1.85 µM
TGI [33]: 4.8 µM
TGI [34]: 1.76 µM
TGI [56]: 15 µM
TGI [35]: 1.97 µM
TGI [57]: 2.11 µM
TGI [36]: 3.73 µM
TGI [38]: 1.15 µM
TGI [39]: 8.64 µM
TGI [40]: 3.17 µM
TGI [41]: 6.22 µM
TGI [42]: 2.89 µM
TGI [43]: 5.37 µM
TGI [44]: 4.33 µM
TGI [58]: 8.33 µM
TGI [45]: 4.66 µM
TGI [46]: 11.3 µM
TGI [48]: 3.54 µM
TGI [49]: 2.3 µM

Cc1cc(I)cc(CN(C)CCCN2CCCC2)c1O
GI50 [1]: 14.4 µM
TGI [1]: 30.3 µM
GI50 [50]: 14.8 µM
TGI [50]: 33.6 µM
GI50 [2]: 29.9 µM
TGI [2]: > 100 µM
GI50 [3]: 23.1 µM
TGI [3]: 65.4 µM
GI50 [59]: 13.9 µM
TGI [59]: 31.7 µM
GI50 [4]: 16.2 µM
TGI [4]: 32.2 µM
GI50 [5]: 3.46 µM
TGI [5]: 38.1 µM
GI50 [6]: 15.6 µM
TGI [6]: 33.1 µM
GI50 [7]: 31.4 µM
TGI [7]: > 100 µM
GI50 [8]: 38.4 µM
TGI [8]: > 100 µM
GI50 [9]: 19.1 µM
TGI [9]: 35.6 µM
GI50 [10]: 15.5 µM
TGI [10]: 55.6 µM
GI50 [11]: 19.1 µM
TGI [11]: 47.5 µM
GI50 [51]: 13.4 µM
TGI [51]: 31.3 µM
GI50 [52]: 16.4 µM
TGI [52]: 34.8 µM
GI50 [12]: 15.8 µM
TGI [12]: 59.1 µM
GI50 [13]: 13.6 µM
TGI [13]: 33.8 µM
GI50 [14]: 9.52 µM
TGI [14]: 24.4 µM
GI50 [15]: 19.5 µM
TGI [15]: 44.7 µM
GI50 [53]: 14.5 µM
TGI [53]: 33.2 µM
GI50 [16]: 20.3 µM
TGI [16]: 46 µM
GI50 [17]: 15 µM
TGI [17]: 30.6 µM
GI50 [18]: 16.4 µM
TGI [18]: 33 µM
GI50 [19]: 16.6 µM
TGI [19]: 33.1 µM
GI50 [20]: 12.8 µM
TGI [20]: 29.5 µM
GI50 [21]: 18.6 µM
TGI [21]: 49.9 µM
GI50 [22]: 12.9 µM
TGI [22]: 28.6 µM
GI50 [24]: 16.1 µM
TGI [24]: 39.1 µM
GI50 [54]: 30.7 µM
TGI [54]: > 100 µM
GI50 [25]: 30 µM
TGI [25]: > 100 µM
GI50 [26]: 16.9 µM
TGI [26]: 38.4 µM
GI50 [27]: 20.7 µM
TGI [27]: 45.9 µM
GI50 [28]: 36.7 µM
TGI [28]: > 100 µM
GI50 [55]: 23.2 µM
TGI [55]: > 88.2 µM
GI50 [29]: 34 µM
TGI [29]: > 90.1 µM
GI50 [30]: 27.8 µM
TGI [30]: > 94.7 µM
GI50 [31]: 45.3 µM
TGI [31]: > 100 µM
GI50 [32]: 25 µM
TGI [32]: 73.7 µM
GI50 [33]: 15.6 µM
TGI [33]: 37.5 µM
GI50 [34]: 16.3 µM
TGI [34]: 41 µM
GI50 [56]: 17.2 µM
TGI [56]: 49.2 µM
GI50 [35]: 13.7 µM
TGI [35]: 28.4 µM
GI50 [57]: 15.3 µM
TGI [57]: 31 µM
GI50 [36]: 20.6 µM
TGI [36]: 40.4 µM
GI50 [37]: 15.3 µM
TGI [37]: 29.9 µM
GI50 [38]: 13.1 µM
TGI [38]: 26 µM
GI50 [39]: 20.5 µM
TGI [39]: 61.2 µM
GI50 [40]: 46.1 µM
TGI [40]: > 100 µM
GI50 [41]: 27.6 µM
TGI [41]: > 80.4 µM
GI50 [42]: 15.3 µM
TGI [42]: 35.6 µM
GI50 [43]: 7.52 µM
TGI [43]: 36.6 µM
GI50 [44]: 15.9 µM
TGI [44]: 35.4 µM
GI50 [58]: 19 µM
TGI [58]: 57.2 µM
GI50 [45]: 17 µM
TGI [45]: 36 µM
GI50 [46]: 19.4 µM
TGI [46]: 49.5 µM
GI50 [47]: 22.7 µM
TGI [47]: > 57 µM
GI50 [48]: 5.47 µM
TGI [48]: 13.1 µM
GI50 [49]: 20 µM
TGI [49]: > 60.9 µM
